Laboratory results published in article doi:10.1101/2022.03.17.484770v1 (biorxiv, 2022).

Biological target: T1, IRI1/LHT1 (Arabidopsis thaliana, UniProt Q9FKS8)
T1 sequence (Q9FKS8 1-446): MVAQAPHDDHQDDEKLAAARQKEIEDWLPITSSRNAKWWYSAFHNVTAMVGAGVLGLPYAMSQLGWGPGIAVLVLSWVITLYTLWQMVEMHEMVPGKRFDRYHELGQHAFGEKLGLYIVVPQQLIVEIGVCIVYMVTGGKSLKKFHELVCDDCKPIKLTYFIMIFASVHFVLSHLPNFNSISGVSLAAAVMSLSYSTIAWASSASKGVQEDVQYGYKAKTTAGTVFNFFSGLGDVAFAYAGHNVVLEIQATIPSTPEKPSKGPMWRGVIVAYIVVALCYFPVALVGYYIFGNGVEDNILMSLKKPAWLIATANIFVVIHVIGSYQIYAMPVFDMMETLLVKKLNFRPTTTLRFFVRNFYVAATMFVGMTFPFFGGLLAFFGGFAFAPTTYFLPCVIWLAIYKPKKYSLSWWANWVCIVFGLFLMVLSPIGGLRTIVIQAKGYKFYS
Assay: inhibition of […]-L-Ala uptake in yeast
Assay type: cell-based

Ki [µM] | SMILES
24.7 | CC(N)CC(=O)O (racemic) [BABA, β-amino butyric acid]
39.2 | N[C@@H](CO)CC(=O)O [RBH, R-β-homoserine]
